This note sets out measurements from PubChem BioAssay AID330 (DTP/NCI, 2004).

For the test, the system named is P388 leukemia ip, CD2F1 mice, survival T/C. Put plainly: NCI In Vivo Anticancer Drug Screen. Data for tumor model P388 Leukemia (intraperitoneal) in CD2F1 (CDF1) mice. The note with it: endpoint: median survival time, higher = longer survival. In short, it runs like this:
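Mice carrying the transplanted tumor received test compound or vehicle. Survival was recorded in each group, and the value is the treated-group measurement divided by that of the vehicle-treated control group.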

The mark [1] stands for this setting: dose: 50.0 mg/kg/injection, schedule: Q01DX005 (ip), vehicle: Klucel (hydroxypropylcellulose) (HPC).
[2] abbreviates: dose: 100.0 mg/kg/injection, schedule: Q01DX005 (ip), vehicle: Klucel (hydroxypropylcellulose) (HPC).
Where [3] appears, read: dose: 200.0 mg/kg/injection, schedule: Q01DX005 (ip), vehicle: Klucel (hydroxypropylcellulose) (HPC).
The mark [4] stands for this setting: dose: 12.5 mg/kg/injection, schedule: Q01DX005 (ip), vehicle: saline with Tween-80.
Where [5] appears, read: dose: 50.0 mg/kg/injection, schedule: Q01DX005 (ip), vehicle: saline with Tween-80.
Setting [6] is: dose: 100.0 mg/kg/injection, schedule: Q01DX005 (ip), vehicle: saline with Tween-80.
[7] abbreviates: dose: 200.0 mg/kg/injection, schedule: Q01DX005 (ip), vehicle: saline with Tween-80.
Where [8] appears, read: dose: 12.5 mg/kg/injection, schedule: Q01DX009 (ip), vehicle: saline.
[9] abbreviates: dose: 25.0 mg/kg/injection, schedule: Q01DX009 (ip), vehicle: saline.
Setting [10] is: dose: 100.0 mg/kg/injection, schedule: Q01DX009 (ip), vehicle: saline.
[11] abbreviates: dose: 60.0 mg/kg/injection, schedule: Q01DX005 (ip), vehicle: saline.
Setting [12] is: dose: 120.0 mg/kg/injection, schedule: Q01DX005 (ip), vehicle: saline.
Setting [13] is: dose: 240.0 mg/kg/injection, schedule: Q01DX005 (ip), vehicle: saline.
The mark [14] stands for this setting: dose: 100.0 mg/kg/injection, schedule: Q04DX002 (ip), vehicle: saline with Tween-80.
The mark [15] stands for this setting: dose: 200.0 mg/kg/injection, schedule: Q04DX002 (ip), vehicle: saline with Tween-80.
The mark [16] stands for this setting: dose: 400.0 mg/kg/injection, schedule: Q04DX002 (ip), vehicle: saline with Tween-80.
[17] abbreviates: dose: 120.0 mg/kg/injection, schedule: Q01DX005 (ip), vehicle: saline with Tween-80.
The mark [18] stands for this setting: dose: 240.0 mg/kg/injection, schedule: Q01DX005 (ip), vehicle: saline with Tween-80.
Setting [19] is: dose: 50.0 mg/kg/injection, schedule: Q01DX009 (ip), vehicle: Klucel (hydroxypropylcellulose) (HPC).
Where [20] appears, read: dose: 100.0 mg/kg/injection, schedule: Q01DX009 (ip), vehicle: Klucel (hydroxypropylcellulose) (HPC).
Setting [21] is: dose: 200.0 mg/kg/injection, schedule: Q01DX009 (ip), vehicle: Klucel (hydroxypropylcellulose) (HPC).

Values joined by “and” are separate entries in the source; they are usually repeats but may differ in a detail not shown here. Equal entries are not always repeated. Inconclusive results and toxic doses are left out.

For the compound `COC(=O)CCC1=C(C)c2cc3[n-]c(cc4nc(cc5[n-]c(cc1n2)c(CCC(=O)OC)c5C)C(C(C)=O)=C4C)c(C(C)=O)c3C.[Cl-].[Fe+3]`, the T/C reads like this: under setting [1], 104 % of control; under setting [2], 106 % of control; under setting [3], 99 % of control.
Consider `O=C1CN(c2ccccc2)C(=O)CN1/N=C/c1ccco1`, for which the T/C by setting is: under setting [4], 100 % of control; (dose: 25.0 mg/kg/injection, schedule: Q01DX005 (ip), vehicle: saline with Tween-80) 95 % of control; under setting [5], 100 % of control and 94 % of control; under setting [6], 98 % of control; under setting [7], 103 % of control.
`COC(=O)C1=C(C(=O)OC)P2(C)(C)ON=C(c3c(C)cc(C)cc3C)N2C1(c1ccccc1)c1ccccc1`: the T/C by setting is: under setting [1], 100 % of control and 95 % of control; under setting [2], 93 % of control; under setting [3], 91 % of control and 94 % of control.
As to `CC12CCC(=O)OC1(CO)C([Se]c1ccccc1)CC2CC(N)=O` (stereo unspecified), the T/C reads like this: under setting [5], 93 % of control; under setting [6], 91 % of control; under setting [7], 91 % of control.
On to `O=C(C[n+]1ccn(CC(OCc2ccc(Cl)cc2Cl)c2ccc(Cl)cc2Cl)c1)c1ccc(F)cc1` (stereo unspecified), for which the T/C runs as follows: (dose: 3.12 mg/kg/injection, schedule: Q01DX005 (ip), vehicle: saline with Tween-80) 101 % of control; (dose: 6.25 mg/kg/injection, schedule: Q01DX005 (ip), vehicle: saline with Tween-80) 95 % of control; under setting [4], 95 % of control.
Turning to `Nc1nc(Br)c(Br)nc1N`, the T/C (dose: 100.0 mg/kg/injection, schedule: Q04DX003 (ip), vehicle: other) is 100 % of control; the T/C (dose: 200.0 mg/kg/injection, schedule: Q04DX003 (ip), vehicle: other) is 100 % of control; the T/C (dose: 400.0 mg/kg/injection, schedule: Q04DX003 (ip), vehicle: other) is 95 % of control.
Consider `CN(C)C=O`, for which the T/C was 103 % of control and 111 % of control under setting [8]; 103 % of control and 107 % of control under setting [9]; 107 % of control (2×) and 111 % of control (dose: 50.0 mg/kg/injection, schedule: Q01DX009 (ip), vehicle: saline); 109 % of control and 115 % of control and 116 % of control under setting [10]; 120 % of control (dose: 800.0 mg/kg/injection, schedule: Q01DX009 (ip), vehicle: saline); 118 % of control (dose: 1600.0 mg/kg/injection, schedule: Q01DX009 (ip), vehicle: saline). Moreover, the T/C (dose: 2.0 % in 0.5 ml injection vol, schedule: Q01DX009 (ip), vehicle: water) is 107 % of control and 119 % of control; the T/C (dose: 4.0 % in 0.5 ml injection vol, schedule: Q01DX009 (ip), vehicle: water) is 116 % of control and 119 % of control; the T/C (dose: 8.0 % in 0.5 ml injection vol, schedule: Q01DX009 (ip), vehicle: water) was 119 % of control.
For the compound `C/C=C/CCC(=O)CC(O)CCO` (stereo unspecified), the T/C reads like this: (dose: 12.5 mg/kg/injection, schedule: Q01DX005 (ip), vehicle: Klucel (hydroxypropylcellulose) (HPC)) 101 % of control; (dose: 25.0 mg/kg/injection, schedule: Q01DX005 (ip), vehicle: Klucel (hydroxypropylcellulose) (HPC)) 98 % of control; under setting [1], 104 % of control and 89 % of control; under setting [2], 104 % of control; under setting [3], 101 % of control; (dose: 400.0 mg/kg/injection, schedule: Q01DX005 (ip), vehicle: Klucel (hydroxypropylcellulose) (HPC)) 111 % of control.
Turning to `O=C(N1CCCCC(Cl)(Cl)C1=O)C(Cl)(Cl)Cl`, the T/C is, setting by setting: under setting [5], 106 % of control; under setting [6], 103 % of control.
For `Nc1nnc2nc(CC(=O)c3ccc([N+](=O)[O-])cc3)c(CC(=O)c3ccc([N+](=O)[O-])cc3)nn12`, the T/C is, setting by setting: under setting [11], 98 % of control; under setting [12], 100 % of control; under setting [13], 100 % of control.
With `CCCCNc1c(C(=O)OCC)cnc2c1cnn2CC`, the T/C is 102 % of control under setting [14], 102 % of control under setting [15] and 90 % of control under setting [16].
As for `Cc1cc(OC(=O)Nc2c(Cl)cccc2Cl)c(Cl)c(C)c1Cl`, the T/C is 112 % of control (dose: 50.0 mg/kg/injection, schedule: Q01DX009 (ip), vehicle: saline with Tween-80); 109 % of control (dose: 100.0 mg/kg/injection, schedule: Q01DX009 (ip), vehicle: saline with Tween-80); 105 % of control (dose: 200.0 mg/kg/injection, schedule: Q01DX009 (ip), vehicle: saline with Tween-80).
Consider `O=C1CCSC(=S)N1c1ccc(F)cc1F`, for which the T/C is, setting by setting: (dose: 6.25 mg/kg/injection, schedule: Q01DX009 (ip), vehicle: saline) 92 % of control; under setting [8], 94 % of control; under setting [9], 91 % of control; under setting [10], 96 % of control; (dose: 200.0 mg/kg/injection, schedule: Q01DX009 (ip), vehicle: saline) 90 % of control; (dose: 200.0 mg/kg/injection, schedule: Q01DX009 (ip), vehicle: suspension in saline) 92 % of control.
On to `CC(C)(C)C(=O)CC(=O)C(F)(F)C(F)(F)C(F)(F)F.CC(C)(C)C(=O)CC(=O)C(F)(F)C(F)(F)C(F)(F)F.CC(C)(C)C(=O)CC(=O)C(F)(F)C(F)(F)C(F)(F)F.[Ho]`, for which the T/C was 111 % of control under setting [17] and 110 % of control under setting [18].
Take `CN(C)CC(CN(C)C)C(O)c1ccccc1` (stereo unspecified): the T/C was 109 % of control under setting [11], 100 % of control under setting [12] and 109 % of control under setting [13].
For the compound `O=C(COc1ccc(Cl)cc1Cl)NCCN1CCCCC1`, the T/C under setting [19] is 107 % of control, the T/C under setting [20] is 100 % of control and the T/C under setting [21] was 100 % of control.
In the case of `O=C(Nc1ccccc1)OCc1c(COC(=O)Nc2ccccc2)c(-c2ccc(Cl)c(Cl)c2)n2c1CCC2`, the T/C (dose: 12.5 mg/kg/injection, schedule: Q01DX005 (ip), vehicle: distilled water + Tween-80) was 122 % of control; the T/C (dose: 100.0 mg/kg/injection, schedule: Q01DX005 (ip), vehicle: distilled water + Tween-80) is 155 % of control; the T/C (dose: 200.0 mg/kg/injection, schedule: Q01DX005 (ip), vehicle: distilled water + Tween-80) is 160 % of control.
In the case of `O=C1C(=Cc2ccc(O)cc2)C(=O)c2ccccc21`, the T/C (dose: 100.0 mg/kg/injection, schedule: Q04DX002 (ip), vehicle: saline) was 97 % of control; the T/C (dose: 200.0 mg/kg/injection, schedule: Q04DX002 (ip), vehicle: saline) is 99 % of control; the T/C (dose: 400.0 mg/kg/injection, schedule: Q04DX002 (ip), vehicle: saline) was 106 % of control.
Take `COC1C(/C=C/c2cnc(N)s2)OC2OC(C)(C)OC21` (stereo unspecified): the T/C is, setting by setting: under setting [14], 102 % of control; under setting [15], 102 % of control; under setting [16], 115 % of control.
For the compound `CCN(CC)C(C)=S`, the T/C was 103 % of control (dose: 60.0 mg/kg/injection, schedule: Q01DX005 (ip), vehicle: saline with Tween-80); 110 % of control under setting [17]; 104 % of control under setting [18].
In the case of `O=C1CCCN1CC#CCN1CCCC1`, the T/C was 97 % of control (dose: 0.79 mg/kg/injection, schedule: Q01DX001 (ip), vehicle: saline); 100 % of control (dose: 0.79 mg/kg/injection, schedule: Q01DX005 (ip), vehicle: saline); 103 % of control (dose: 1.56 mg/kg/injection, schedule: Q01DX001 (ip), vehicle: saline); 97 % of control (dose: 1.56 mg/kg/injection, schedule: Q01DX005 (ip), vehicle: saline); 105 % of control (dose: 3.12 mg/kg/injection, schedule: Q01DX001 (ip), vehicle: saline); 97 % of control (dose: 3.12 mg/kg/injection, schedule: Q01DX005 (ip), vehicle: saline).
In the case of `O=C(NC(ON1CCCCC1)C(=O)O)c1ccccc1` (stereo unspecified), the T/C is 104 % of control under setting [19], 102 % of control under setting [20] and 98 % of control under setting [21].
